Assay results: US20250360109A1, “COMPOSITIONS AND METHODS FOR TREATING DEPRESSION IN FEMALES” (priority 2022, published 2025)

Legend:
Format in all cases: in vivo, human
[1] = tested on: adult subjects with major depressive disorder (MDD); experiment: Phase 2 placebo-controlled study in MDD, Quality of Life Enjoyment and Satisfaction Questionnaire-Short Form (Q-LES-Q-SF); conditions: mITT; for Change from Baseline, Q-LES-Q-SF Total at Week 2, LSM Difference (95% CI) / Change from Baseline, Q-LES-Q-SF Total at Week 4, LSM Difference (95% CI): 20 mg/day vs Placebo; for Change from Baseline, Q-LES-Q-SF Total at Week 2, Mean (SD) / Change from Baseline, Q-LES-Q-SF Total at Week 2, Median / Change from Baseline, Q-LES-Q-SF Total at Week 4, Mean (SD) / Change from Baseline, Q-LES-Q-SF Total at Week 4, Median / Q-LES-Q-SF Total at Week 2, Mean (SD) / Q-LES-Q-SF Total at Week 2, Median / Q-LES-Q-SF Total at Week 4, Mean (SD) / Q-LES-Q-SF Total at Week 4, Median: 20 mg/day
Procedure: (§1) A Phase 2, multicenter, double-blind, randomized, placebo-controlled study of the safety and efficacy of SP-624 in the treatment of adult subjects with major depressive disorder (MDD) as defined by the Diagnostic and Statistical Manual of Mental Disorders, Fifth Edition (DSM-5) was carried out. Following the successful completion of a Screening Phase, subjects were randomized to one of two treatment groups in a 1:1 ratio and received Compound 1 (SP-624) or placebo over a treatment period of four weeks (Treatment Group #1: SP-624 20 mg/day; Treatment Group #2: Placebo).
(§2) Prior to initiating the 4-week treatment period, subjects completed a Screening/Baseline period of up to 28 days, during which time all screening assessments were performed, and any current depression medications discontinued. All screening assessments were completed before discontinuing any current depression medications. Subjects returned for a Baseline Visit to complete efficacy and safety assessments. During the treatment period, subjects returned to the investigative site to complete efficacy and safety assessments at the end of Weeks 1, 2, 3, and 4. After the final dose of study drug, subjects completed a follow-up period of two weeks and returned at the end of Weeks 5 and 6. Subjects may be treated with anti-depressant medications according to physician recommendations after completion of the Week 5 Visit.
(§3) Each dose of Compound 1 was supplied as two capsules, each containing 10 mg of active pharmaceutical ingredient (API). Matching placebo capsules identical in shape and color to the active capsules were used.
(§4) Secondary efficacy endpoints included: • Change from Baseline to Weeks 1, 2, and 3 in MADRS total score, • Change from Baseline to Weeks 1, 2, 3, and 4 in Clinical Global Impression-Severity (CGI-S) total score, • Change from Baseline to Week 5 and change from Week 4 to Week 5 in MADRS total score and CGI-S total score, • Change from Baseline to Week 2 and Week 4 in the 17-item Hamilton Depression Rating Scale (HAM D-17) total score, • Change from Baseline to Week 2 and Week 4 in the Sheehan Disability Scale (SDS), • Change from Baseline to Week 2 and Week 4 in the Quick Inventory of Depressive Symptomology-Self Report (QIDS-SR), and • Change from Baseline to Week 2 and Week 4 in the Quality of Life Enjoyment and Satisfaction Questionnaire-Short Form (Q-LES-Q-SF).

[2] = tested on: adult subjects with major depressive disorder (MDD); experiment: Phase 2 placebo-controlled study in MDD, 17-item Hamilton Depression Rating Scale (HAM D-17) total score; conditions: mITT; for Change from Baseline, HAM-D-17 Total at Week 2, LSM Difference (95% CI) / Change from Baseline, HAM-D-17 Total at Week 4, LSM Difference (95% CI): 20 mg/day vs Placebo; for Change from Baseline, HAM-D-17 Total at Week 2, Mean (SD) / Change from Baseline, HAM-D-17 Total at Week 2, Median / Change from Baseline, HAM-D-17 Total at Week 4, Mean (SD) / Change from Baseline, HAM-D-17 Total at Week 4, Median / HAM-D-17 Total at Week 2, Mean (SD) / HAM-D-17 Total at Week 2, Median / HAM-D-17 Total at Week 4, Mean (SD) / HAM-D-17 Total at Week 4, Median: 20 mg/day
Procedure: as §1, §2, §3, §4

[3] = tested on: adult subjects with major depressive disorder (MDD); experiment: Phase 2 placebo-controlled study in MDD, Quick Inventory of Depressive Symptomology-Self Report (QIDS-SR); conditions: mITT; for Change from Baseline, QIDS Total at Week 2, LSM Difference (95% CI) / Change from Baseline, QIDS Total at Week 4, LSM Difference (95% CI): 20 mg/day vs Placebo; for Change from Baseline, QIDS Total at Week 2, Mean (SD) / Change from Baseline, QIDS Total at Week 2, Median / Change from Baseline, QIDS Total at Week 4, Mean (SD) / Change from Baseline, QIDS Total at Week 4, Median / QIDS Total at Week 2, Mean (SD) / QIDS Total at Week 2, Median / QIDS Total at Week 4, Mean (SD) / QIDS Total at Week 4, Median: 20 mg/day
Procedure: as §1, §2, §3, §4

[4] = tested on: adult subjects with major depressive disorder (MDD); experiment: Phase 2 placebo-controlled study in MDD, Sheehan Disability Scale (SDS); conditions: mITT; for Change from Baseline, SDS Total at Week 2, LSM Difference (95% CI) / Change from Baseline, SDS Total at Week 4, LSM Difference (95% CI): 20 mg/day vs Placebo; for Change from Baseline, SDS Total at Week 2, Mean (SD) / Change from Baseline, SDS Total at Week 2, Median / Change from Baseline, SDS Total at Week 4, Mean (SD) / Change from Baseline, SDS Total at Week 4, Median / SDS Total at Week 2, Mean (SD) / SDS Total at Week 2, Median / SDS Total at Week 4, Mean (SD) / SDS Total at Week 4, Median: 20 mg/day
Procedure: as §1, §2, §3, §4

COC1=CC(=O)C[C@@H](C)[C@]12Oc1c(Cl)c(-c3nnc(C)o3)cc(OC)c1C2=O [SP-624, (2S,6′R)-7-Chloro-2′,4-dimethoxy-6′-methyl-6-(5-methyl-1,3,4-oxadiazol-2-yl)-3H-spiro[1-benzofuran-2,1′-cyclohex [2]ene]-3,4′-dione]
Change from Baseline, Q-LES-Q-SF Total at Week 2, LSM Difference (95% CI) ([1]; Female): 1.1 (−1.8, 3.9)
Change from Baseline, Q-LES-Q-SF Total at Week 4, LSM Difference (95% CI) ([1]; Female): 3.3 (−0.3, 6.8)
Change from Baseline, Q-LES-Q-SF Total at Week 2, Mean (SD) ([1]; Female): 7.8 (10.32)
Change from Baseline, Q-LES-Q-SF Total at Week 2, Median ([1]; Female): 6
Change from Baseline, Q-LES-Q-SF Total at Week 4, Mean (SD) ([1]; Female): 11.4 (14.11)
Change from Baseline, Q-LES-Q-SF Total at Week 4, Median ([1]; Female): 10
Q-LES-Q-SF Total at Week 2, Mean (SD) ([1]; Female): 59.2 (11.32)
Q-LES-Q-SF Total at Week 2, Median ([1]; Female): 59
Q-LES-Q-SF Total at Week 4, Mean (SD) ([1]; Female): 62.1 (13.87)
Q-LES-Q-SF Total at Week 4, Median ([1]; Female): 59
Change from Baseline, Q-LES-Q-SF Total at Week 2, LSM Difference (95% CI) ([1]; Male): −2.2 (−6.7, 2.3)
Change from Baseline, Q-LES-Q-SF Total at Week 4, LSM Difference (95% CI) ([1]; Male): −1.3 (−6.4, 3.7)
Change from Baseline, Q-LES-Q-SF Total at Week 2, Mean (SD) ([1]; Male): 5.5 (10.39)
Change from Baseline, Q-LES-Q-SF Total at Week 2, Median ([1]; Male): 4
Change from Baseline, Q-LES-Q-SF Total at Week 4, Mean (SD) ([1]; Male): 7.1 (11.54)
Change from Baseline, Q-LES-Q-SF Total at Week 4, Median ([1]; Male): 6
Q-LES-Q-SF Total at Week 2, Mean (SD) ([1]; Male): 59.5 (12.80)
Q-LES-Q-SF Total at Week 2, Median ([1]; Male): 59
Q-LES-Q-SF Total at Week 4, Mean (SD) ([1]; Male): 61.5 (12.26)
Q-LES-Q-SF Total at Week 4, Median ([1]; Male): 61
Change from Baseline, HAM-D-17 Total at Week 2, LSM Difference (95% CI) ([2]; Female): −0.9 (−2.6, 0.8)
Change from Baseline, HAM-D-17 Total at Week 4, LSM Difference (95% CI) ([2]; Female): −2.3 (−4.2, −0.4)
Change from Baseline, HAM-D-17 Total at Week 2, Mean (SD) ([2]; Female): −6.4 (5.99)
Change from Baseline, HAM-D-17 Total at Week 2, Median ([2]; Female): −5
Change from Baseline, HAM-D-17 Total at Week 4, Mean (SD) ([2]; Female): −8.8 (6.82)
Change from Baseline, HAM-D-17 Total at Week 4, Median ([2]; Female): −8
HAM-D-17 Total at Week 2, Mean (SD) ([2]; Female): 16.6 (6.25)
HAM-D-17 Total at Week 2, Median ([2]; Female): 17
HAM-D-17 Total at Week 4, Mean (SD) ([2]; Female): 14.6 (7.03)
HAM-D-17 Total at Week 4, Median ([2]; Female): 15
Change from Baseline, HAM-D-17 Total at Week 2, LSM Difference (95% CI) ([2]; Male): 0.1 (−2.6, 2.8)
Change from Baseline, HAM-D-17 Total at Week 4, LSM Difference (95% CI) ([2]; Male): 1.4 (−1.4, 4.3)
Change from Baseline, HAM-D-17 Total at Week 2, Mean (SD) ([2]; Male): −5.7 (5.90)
Change from Baseline, HAM-D-17 Total at Week 2, Median ([2]; Male): −5
Change from Baseline, HAM-D-17 Total at Week 4, Mean (SD) ([2]; Male): −7.8 (6.57)
Change from Baseline, HAM-D-17 Total at Week 4, Median ([2]; Male): −7
HAM-D-17 Total at Week 2, Mean (SD) ([2]; Male): 16.2 (6.58)
HAM-D-17 Total at Week 2, Median ([2]; Male): 17
HAM-D-17 Total at Week 4, Mean (SD) ([2]; Male): 14.3 (6.96)
HAM-D-17 Total at Week 4, Median ([2]; Male): 15
Change from Baseline, QIDS Total at Week 2, LSM Difference (95% CI) ([3]; Female): −1.1 (−2.4, 0.3)
Change from Baseline, QIDS Total at Week 4, LSM Difference (95% CI) ([3]; Female): −2.0 (−3.3, −0.6)
Change from Baseline, QIDS Total at Week 2, Mean (SD) ([3]; Female): −3.9 (4.37)
Change from Baseline, QIDS Total at Week 2, Median ([3]; Female): −3
Change from Baseline, QIDS Total at Week 4, Mean (SD) ([3]; Female): −5.7 (4.76)
Change from Baseline, QIDS Total at Week 4, Median ([3]; Female): −5
QIDS Total at Week 2, Mean (SD) ([3]; Female): 11.7 (4.87)
QIDS Total at Week 2, Median ([3]; Female): 12
QIDS Total at Week 4, Mean (SD) ([3]; Female): 10.2 (4.69)
QIDS Total at Week 4, Median ([3]; Female): 10
Change from Baseline, QIDS Total at Week 2, LSM Difference (95% CI) ([3]; Male): 1.2 (−0.9, 3.2)
Change from Baseline, QIDS Total at Week 4, LSM Difference (95% CI) ([3]; Male): 1.1 (−0.8, 3.0)
Change from Baseline, QIDS Total at Week 2, Mean (SD) ([3]; Male): −2.1 (5.50)
Change from Baseline, QIDS Total at Week 2, Median ([3]; Male): −2
Change from Baseline, QIDS Total at Week 4, Mean (SD) ([3]; Male): −3.3 (4.46)
Change from Baseline, QIDS Total at Week 4, Median ([3]; Male): −4
QIDS Total at Week 2, Mean (SD) ([3]; Male): 11.7 (5.27)
QIDS Total at Week 2, Median ([3]; Male): 12
QIDS Total at Week 4, Mean (SD) ([3]; Male): 10.4 (4.55)
QIDS Total at Week 4, Median ([3]; Male): 11
Change from Baseline, SDS Total at Week 2, LSM Difference (95% CI) ([4]; Female): −1.7 (−3.3, −0.1)
Change from Baseline, SDS Total at Week 4, LSM Difference (95% CI) ([4]; Female): −2.0 (−3.8, −0.2)
Change from Baseline, SDS Total at Week 2, Mean (SD) ([4]; Female): −4.7 (5.74)
Change from Baseline, SDS Total at Week 2, Median ([4]; Female): −4
Change from Baseline, SDS Total at Week 4, Mean (SD) ([4]; Female): −5.8 (6.70)
Change from Baseline, SDS Total at Week 4, Median ([4]; Female): −5
SDS Total at Week 2, Mean (SD) ([4]; Female): 11.8 (6.24)
SDS Total at Week 2, Median ([4]; Female): 11
SDS Total at Week 4, Mean (SD) ([4]; Female): 11.2 (6.98)
SDS Total at Week 4, Median ([4]; Female): 11
Change from Baseline, SDS Total at Week 2, LSM Difference (95% CI) ([4]; Male): 2.6 (0.3, 4.8)
Change from Baseline, SDS Total at Week 4, LSM Difference (95% CI) ([4]; Male): 1.3 (−1.3, 3.8)
Change from Baseline, SDS Total at Week 2, Mean (SD) ([4]; Male): −2.4 (5.27)
Change from Baseline, SDS Total at Week 2, Median ([4]; Male): −2
Change from Baseline, SDS Total at Week 4, Mean (SD) ([4]; Male): −5.0 (6.14)
Change from Baseline, SDS Total at Week 4, Median ([4]; Male): −4
SDS Total at Week 2, Mean (SD) ([4]; Male): 12.8 (5.99)
SDS Total at Week 2, Median ([4]; Male): 13
SDS Total at Week 4, Mean (SD) ([4]; Male): 10.5 (6.39)
SDS Total at Week 4, Median ([4]; Male): 10
